Data on one compound can be found in US6627604B2, “Memno peptides, process for their preparation and use thereof” (priority 2000, dated 2003).

Test [1] deals with Enterococcus faecium Md8B.
The target in test [2] is glucose-6-phosphate translocase (G-6-P—TL) (Homo sapiens, UniProt O43826). The experiment in a line: Inhibition of glucose-6-phosphate translocase. It counts as biochemical.
In test [3] the test system is Streptococcus pyogenes 308A.
Test [4] has as its system Staph. epidermidis 763.
Test [5] concerns Staphylococcus aureus 9 Tüb.
Test [6] relates to Staph. epidermidis ZH 2c.
In test [7] the test system is Streptococcus pyogenes VR3. Kind of test: Minimum inhibitory concentration. The conditions noted are these: resistance against: Vancomycin. It counts as cell-based.
Test [8] deals with Enterococcus faecium VR2.
For test [9], the system named is Staphylococcus aureus 701E.
Test [10] concerns the target G-6-P phosphatase (Homo sapiens, UniProt P35575). Kind of test: Inhibition of G-6-P phosphatase. It counts as biochemical.
Test [11] deals with Staph. epidermidis 5747IIW.
For test [12], the system named is Staphylococcus aureus 503.
Test [13] concerns Staphylococcus aureus FH 1982.
Test [14] deals with Staph. epidermidis 799.
The test system of test [15] is Streptococcus pyogenes 77A.
The test system of test [16] is Staphylococcus aureus 285.
For test [17], the system named is Enterococcus faecium VR1.
The target of test [18] is T1, SERCA2 (Canis lupus familiaris, UniProt O46674).
T1 construct: activity of the Ca^2+ ATPase in dog heart microsomes; from tissue; host or cells: dog heart microsomes
Kind of test: Colorimetric Ca2+ ATPase (SERCA2) activation test in dog heart microsomes. It counts as biochemical. The conditions noted are these: Ca2+ ATPase activity in dog heart microsomes, phosphate release at 620 nm. From the text:
For the detection of the activators of SERCA2 which imitate the phosphorylation effect of PLB, a […] test may be run which determines the activity of the Ca^2+ ATPase in dog heart microsomes in the presence of test substances. The test may be carried out in 96-well microtiter plates. The enzymatic release of inorganic phosphate from ATP, which forms a blue colored complex with ammonium molybdate which can be measured at 620 nm in a spectrophotometer, may be measured.

Test [19] deals with Staphylococcus aureus 707E.
Test [20] concerns Staphylococcus aureus SG 511.
In test [21] the test system is Staph. epidermidis 291.

Values after ≈ are worked out from the molar mass of the structure shown. Residues, ends and D or L forms follow the SMILES beside them. *: point of attachment. X1 = CC1CCC2C(C)(C)C(O)CCC2(C)C12Cc1c(O)cc3c(c1O2)CN(C(CC[S+](C)[O-])C(=O)*)C3=O

T1 sequence (O46674 whole entry): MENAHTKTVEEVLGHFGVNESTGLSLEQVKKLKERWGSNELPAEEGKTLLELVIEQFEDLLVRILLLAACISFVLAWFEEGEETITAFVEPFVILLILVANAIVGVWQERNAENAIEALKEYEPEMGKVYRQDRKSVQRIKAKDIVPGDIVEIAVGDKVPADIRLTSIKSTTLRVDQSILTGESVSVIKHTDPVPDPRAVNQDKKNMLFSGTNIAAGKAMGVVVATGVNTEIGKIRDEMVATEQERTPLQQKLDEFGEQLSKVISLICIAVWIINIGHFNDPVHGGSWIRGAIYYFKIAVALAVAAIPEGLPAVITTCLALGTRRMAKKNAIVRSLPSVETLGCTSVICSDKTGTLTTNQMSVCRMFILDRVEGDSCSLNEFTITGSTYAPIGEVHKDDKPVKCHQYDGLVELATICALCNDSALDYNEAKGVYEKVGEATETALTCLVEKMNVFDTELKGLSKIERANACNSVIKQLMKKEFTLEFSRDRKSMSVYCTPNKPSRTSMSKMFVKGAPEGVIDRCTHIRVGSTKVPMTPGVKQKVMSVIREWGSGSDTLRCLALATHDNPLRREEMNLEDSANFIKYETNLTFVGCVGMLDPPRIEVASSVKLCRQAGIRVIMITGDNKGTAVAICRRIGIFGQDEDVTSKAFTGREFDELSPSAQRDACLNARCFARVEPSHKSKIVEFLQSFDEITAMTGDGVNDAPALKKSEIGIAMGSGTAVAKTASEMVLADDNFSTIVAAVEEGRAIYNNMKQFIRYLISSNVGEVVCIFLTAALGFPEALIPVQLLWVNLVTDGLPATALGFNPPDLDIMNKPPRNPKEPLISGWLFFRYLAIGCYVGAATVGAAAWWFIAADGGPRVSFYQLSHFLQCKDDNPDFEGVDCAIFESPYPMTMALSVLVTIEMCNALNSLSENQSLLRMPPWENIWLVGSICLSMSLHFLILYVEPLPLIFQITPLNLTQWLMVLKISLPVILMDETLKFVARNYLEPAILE
Sequence of glucose-6-phosphate translocase (G-6-P—TL) (O43826 whole entry, species assumed): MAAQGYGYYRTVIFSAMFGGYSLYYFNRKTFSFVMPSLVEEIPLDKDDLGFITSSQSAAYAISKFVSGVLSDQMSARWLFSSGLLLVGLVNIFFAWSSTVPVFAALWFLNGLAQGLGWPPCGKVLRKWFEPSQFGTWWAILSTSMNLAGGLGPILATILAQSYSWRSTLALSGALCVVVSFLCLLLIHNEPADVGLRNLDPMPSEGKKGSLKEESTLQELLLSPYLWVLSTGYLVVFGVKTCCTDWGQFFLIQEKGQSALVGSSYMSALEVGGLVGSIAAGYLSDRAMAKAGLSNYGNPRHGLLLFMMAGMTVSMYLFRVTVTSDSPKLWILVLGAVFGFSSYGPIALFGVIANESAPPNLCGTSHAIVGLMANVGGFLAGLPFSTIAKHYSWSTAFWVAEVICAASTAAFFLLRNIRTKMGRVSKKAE
Sequence of G-6-P phosphatase (P35575 whole entry): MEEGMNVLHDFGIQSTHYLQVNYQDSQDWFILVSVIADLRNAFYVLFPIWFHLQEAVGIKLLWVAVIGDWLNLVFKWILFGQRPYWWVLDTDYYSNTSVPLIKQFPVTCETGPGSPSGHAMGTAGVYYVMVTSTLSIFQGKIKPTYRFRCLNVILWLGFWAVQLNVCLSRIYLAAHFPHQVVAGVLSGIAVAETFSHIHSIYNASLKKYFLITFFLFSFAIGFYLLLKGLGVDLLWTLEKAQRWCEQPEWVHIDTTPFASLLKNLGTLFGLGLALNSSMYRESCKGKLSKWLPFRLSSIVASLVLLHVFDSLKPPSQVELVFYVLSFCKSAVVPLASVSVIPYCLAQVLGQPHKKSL

On to `CC(C)CC(NC(=O)C1CCCN1C(=O)C(CCC(N)=O)NC(=O)C(Cc1c[nH]cn1)NC(=O)C1CCCN1C(=O)C(CCC(N)=O)NC(=O)C(Cc1cnc[nH]1)NC(=O)C(CC[S+](C)[O-])N1Cc2c(cc(O)c3c2OC2(C3)C(C)CCC3C(C)(C)C(O)CCC32C)C1=O)C(=O)N1CCCC1C(=O)N1CCCC1C(=O)O` (stereo not drawn) [memno peptide A] (X1-HQPHQPLPP-OH; configuration not given here), for which the MIC – broadly, the smallest concentration in the dilution series that meets the test's criterion for growth inhibition – in [1] is 8 µg/mL (≈ 5.11 µM); in test [3] it was 8 µg/mL (≈ 5.11 µM); in test [4], more than 16 µg/mL; in test [5], 16 µg/mL (≈ 10.2 µM); in test [6] it was 16 µg/mL (≈ 10.2 µM); in [7] it was more than 64 µg/mL. In addition, the minimal inhibitory concentration (MIC) in test [8] was more than 64 µg/mL; in [9] it was 16 µg/mL (≈ 10.2 µM); in [11] it was 32 µg/mL (≈ 20.4 µM); in test [12] it was 16 µg/mL (≈ 10.2 µM); in [13] it was 16 µg/mL (≈ 10.2 µM); in test [14], 8 µg/mL (≈ 5.11 µM). For the same compound, the minimum inhibitory concentration (MIC) in test [15] was 4 µg/mL (≈ 2.55 µM); in test [16] it was 16 µg/mL (≈ 10.2 µM); in [17], more than 64 µg/mL; in [19], 16 µg/mL (≈ 10.2 µM); in [20], 16 µg/mL (≈ 10.2 µM); in test [21], 8 µg/mL (≈ 5.11 µM). Moreover, in test [2], the “inhibitory action on glucose-6-phosphate translocase (G-6-P—TL)” value is recorded as “exhibits selective activities against G-6-P—TL”. The “inhibition of the coenzyme G-6-P phosphatase” value in [10] is recorded as “does not inhibit”. Also, the “activates SERCA2 in concentrations from” value in test [18] is not below 12.5 µM.
